Source: US6426355B1, “Heterocyclic carboxamide-containing thiourea inhibitors of herpes viruses containing phenylenediamine group” (American Home Products, priority 1998, dated 2002)
Values after ≈ are worked out from the molar mass of the structure shown.

How the values were obtained:
[1] = tested on: HCMV recombinant mutant virus (RV145); experiment: HCMV microtiter plate assay (beta-glucuronidase reporter); assay type: cell-based, Human Cytomegalovirus; conditions: HCMV in human foreskin fibroblasts
Outline: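 Replication was read out as virus-encoded β-glucuronidase activity, measured with a chromogenic or fluorogenic glucuronide substrate in cell lysates at 96 h post-infection. Infection of human foreskin fibroblasts with RV145 took place with compound present. IC50 was derived from a range of inhibitor amounts.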

HSV-1 = experiment: HSV Antiviral (ELISA) assay; assay type: cell-based; conditions: HSV-1 in Vero cells
Outline: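 Replication measured as glycoprotein D signal in fixed cells: anti-gD antibody plus β-galactosidase-linked secondary, fluorogenic substrate read at 365/450 nm. Vero cells (2% FBS DMEM) received compound 30 min pre-infection, HSV-1 MOI 0.006, ~24 h incubation; IC50 relative to no-compound fluorescence.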

VZV strain Ellen = experiment: VZV Antiviral (ELISA) assay; assay type: cell-based; conditions: VZV strain Ellen in HFF cells; for % inhibition 10 ug/ml VZV: at 10 ug/ml
Outline: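 Cell-based VZV (Ellen) spread assay in HFF, 3-day compound exposure in 2% FBS medium. Viral antigen quantified by fluorescent β-galactosidase ELISA; IC50 from inhibition of signal.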

Row | Structure (SMILES) | IC50 (ug/ml) HCMV [1] | IC50 (ug/ml) HSV (HSV-1) | IC50 (ug/ml) VZV (VZV strain Ellen) | % inhibition 10 ug/ml VZV (VZV strain Ellen)
1 | CC(=O)Nc1cccc(NC(=S)Nc2ccc(NC(=O)c3csnn3)cc2)c1 [Example 478] | 0.4 µg/mL (≈ 0.97 µM) | >10 µg/mL | >10 µg/mL | 31%
2 | CN(C)c1cccc(NC(=S)Nc2ccc(NC(=O)c3csnn3)cc2)c1 [Example 479] | 0.1 µg/mL (≈ 0.251 µM) | >10 µg/mL | >10 µg/mL | 30%
3 | O=C(Nc1ccc(NC(=S)Nc2ccc3[nH]ncc3c2)cc1)c1ccco1 [Example 481] | 0.5 µg/mL (≈ 1.32 µM) | >10 µg/mL | >10 µg/mL | 32%
4 | O=C(Nc1ccc(NC(=S)Nc2ccc3scnc3c2)cc1)c1ccco1 [Example 482] | 0.3 µg/mL (≈ 0.76 µM) | 9 µg/mL (≈ 22.8 µM) | >10 µg/mL | 33%
5 | COC(=O)c1cc(NC(=S)Nc2ccc(NC(=O)c3csnn3)cc2)cc(C(=O)OC)c1 [Example 485] | 0.03 µg/mL (≈ 0.0636 µM) | >10 µg/mL | >10 µg/mL | 11%
6 | CC(N=[N+]=[N-])c1ccc(NC(=S)Nc2ccc(NC(=O)c3ccco3)cc2)cc1Cl (stereo not shown) [Example 486] | 0.045 µg/mL (≈ 0.102 µM) | >10 µg/mL | >10 µg/mL | 22%
7 | O=C(Nc1ccc(NC(=S)Nc2cccc(CO)c2)cc1)c1ccco1 [Example 488] | 1.2 µg/mL (≈ 3.27 µM) | >10 µg/mL | >10 µg/mL | 13%
8 | CN(C)c1ccc(Cl)cc1NC(=S)Nc1ccc(NC(=O)c2ccco2)cc1 [Example 489] | 0.17 µg/mL (≈ 0.41 µM) | 5 µg/mL (≈ 12.1 µM) | 3.5 µg/mL (≈ 8.44 µM) | 99%
9 | O=C(Nc1ccc(NC(=S)Nc2ccc3[nH]cnc3c2)cc1)c1ccco1 [Example 494] | 3.5 µg/mL (≈ 9.27 µM) | >10 µg/mL | >10 µg/mL | 6%
10 | Cc1nc2cc(NC(=S)Nc3ccc(NC(=O)c4ccco4)cc3)ccc2[nH]1 [Example 495] | 3 µg/mL (≈ 7.66 µM) | >10 µg/mL | >10 µg/mL | 27%
11 | CN(C)c1ccc(Cl)cc1NC(=S)Nc1ccc(NC(=O)c2csnn2)cc1 [Example 500] | 0.021 µg/mL (≈ 0.0485 µM) | >10 µg/mL | >10 µg/mL | 48%
12 | Nc1nccc(-c2ccc(NC(=S)Nc3ccc(NC(=O)c4csnn4)cc3)cc2Cl)n1 [Example 501] | 0.032 µg/mL (≈ 0.0663 µM) | >10 µg/mL | >10 µg/mL | 10%
13 | CN(C)c1c(Cl)cccc1NC(=S)Nc1ccc(NC(=O)c2csnn2)cc1 [Example 503] | 0.053 µg/mL (≈ 0.122 µM) | 8 µg/mL (≈ 18.5 µM) | >10 µg/mL | 64%
14 | CN(C)c1c(Cl)cccc1NC(=S)Nc1ccc(NC(=O)c2ccco2)cc1 [Example 505] | 0.2 µg/mL (≈ 0.482 µM) | 10 µg/mL (≈ 24.1 µM) | 8 µg/mL (≈ 19.3 µM) | 79%
15 | O=C(Nc1ccc(NC(=S)Nc2cccc(I)c2)cc1)c1csnn1 [Example 508] | 0.013 µg/mL (≈ 0.027 µM) | >10 µg/mL | >10 µg/mL | 7%
16 | CC(C)(C)c1cccc(NC(=S)Nc2ccc(NC(=O)c3csnn3)cc2)c1 [Example 509] | 0.03 µg/mL (≈ 0.0729 µM) | >10 µg/mL | >10 µg/mL | 31%
17 | O=C(Nc1ccc(NC(=S)NCc2cccc(Cl)c2)cc1)c1ccco1 [Example 510] | 0.04 µg/mL (≈ 0.104 µM) | 8 µg/mL (≈ 20.7 µM) | >10 µg/mL | 19%
18 | O=C(Nc1ccc(NC(=S)Nc2cccc(Br)c2)cc1)c1csnn1 [Example 513] | 0.011 µg/mL (≈ 0.0253 µM) | >10 µg/mL | >10 µg/mL | 10%
19 | O=C(Nc1ccc(NC(=S)Nc2cc(C(F)(F)F)cc(C(F)(F)F)c2)cc1)c1ccco1 [Example 516] | 0.04 µg/mL (≈ 0.0845 µM) | >10 µg/mL | >10 µg/mL | 7%
20 | Nc1c(Br)cc(NC(=S)Nc2ccc(NC(=O)c3csnn3)cc2)cc1Br [Example 521] | 0.04 µg/mL (≈ 0.0757 µM) | 10 µg/mL (≈ 18.9 µM) | 3 µg/mL (≈ 5.68 µM) | 97%
21 | CN(C)c1cc(Cl)cc(NC(=S)Nc2ccc(NC(=O)c3csnn3)cc2)c1 [Example 522] | 0.025 µg/mL (≈ 0.0577 µM) | >10 µg/mL | >10 µg/mL | 32%

Row | Structure (SMILES) | IC50 (ug/ml) HCMV [1] | IC50 (ug/ml) HSV (HSV-1) | IC50 (ug/ml) VZV (VZV strain Ellen) | % inhibition 10 ug/ml VZV (VZV strain Ellen)
22 | CN(C)c1cc(Cl)cc(NC(=S)Nc2ccc(NC(=O)c3ccco3)cc2)c1 [Example 524] | 0.055 µg/mL (≈ 0.133 µM) | 4 µg/mL (≈ 9.64 µM) | 2 µg/mL (≈ 4.82 µM) | 95%
23 | O=C(Nc1ccc(NC(=S)Nc2ccc3[nH]nnc3c2)cc1)c1ccco1 [Example 526] | 3 µg/mL (≈ 7.93 µM) | >10 µg/mL | 2.5 µg/mL (≈ 6.61 µM) | 22%
24 | O=C(Nc1ccc(NC(=S)NNc2cccc(Cl)c2)cc1)c1ccco1 [Example 528] | 0.25 µg/mL (≈ 0.646 µM) | 3.2 µg/mL (≈ 8.27 µM) | 5 µg/mL (≈ 12.9 µM) | 107%
25 | Nc1c(Cl)cc(C(F)(F)F)cc1NC(=S)Nc1ccc(NC(=O)c2ccco2)cc1 [Example 530] | 0.15 µg/mL (≈ 0.33 µM) | 5 µg/mL (≈ 11 µM) | 6 µg/mL (≈ 13.2 µM) | 96%
26 | O=C(Nc1ccc(NC(=S)Nc2cc(Br)cc(C(F)(F)F)c2)cc1)c1csnn1 [Example 532] | 0.009 µg/mL (≈ 0.0179 µM) | >10 µg/mL | 6 µg/mL (≈ 11.9 µM) | –
27 | Nc1c(Cl)cc(C(F)(F)F)cc1NC(=S)Nc1ccc(NC(=O)c2csnn2)cc1 [Example 534] | 0.05 µg/mL (≈ 0.106 µM) | 7 µg/mL (≈ 14.8 µM) | >10 µg/mL | –
28 | O=C(Nc1ccc(NC(=S)Nc2cc(N3CCCCC3)cc(C(F)(F)F)c2)cc1)c1csnn1 [Example 535] | 0.016 µg/mL (≈ 0.0316 µM) | >10 µg/mL | >10 µg/mL | –
29 | O=C(Nc1ccc(NC(=S)NCc2ccc(Cl)c(Cl)c2)cc1)c1csnn1 [Example 537] | 0.003 µg/mL (≈ 0.00684 µM) | 9 µg/mL (≈ 20.5 µM) | 10 µg/mL (≈ 22.8 µM) | –
30 | O=C(Nc1ccc(NC(=S)NCc2ccccc2)cc1)c1csnn1 [Example 539] | 0.036 µg/mL (≈ 0.0974 µM) | >10 µg/mL | >10 µg/mL | –
31 | O=C(Nc1ccc(NC(=S)NCc2ccc3c(c2)OCO3)cc1)c1csnn1 [Example 541] | 0.017 µg/mL (≈ 0.0411 µM) | 7 µg/mL (≈ 16.9 µM) | >10 µg/mL | –
32 | O=C(Nc1ccc(NC(=S)NCc2cc(C(F)(F)F)cc(C(F)(F)F)c2)cc1)c1csnn1 [Example 542] | 0.0011 µg/mL (≈ 0.00218 µM) | >10 µg/mL | >10 µg/mL | –
33 | O=C(Nc1ccc(NC(=S)NCc2ccccc2)cc1)c1ccco1 [Example 544] | 0.02 µg/mL (≈ 0.0569 µM) | >10 µg/mL | >10 µg/mL | –
34 | O=C(Nc1ccc(NC(=S)NCc2ccc(Cl)c(Cl)c2)cc1)c1ccco1 [Example 545] | 0.012 µg/mL (≈ 0.0285 µM) | 3 µg/mL (≈ 7.14 µM) | 7 µg/mL (≈ 16.7 µM) | –
35 | O=C(Nc1ccc(NC(=S)NCc2cc(C(F)(F)F)cc(C(F)(F)F)c2)cc1)c1ccco1 [Example 547] | 0.006 µg/mL (≈ 0.0123 µM) | >10 µg/mL | 10 µg/mL (≈ 20.5 µM) | –
36 | O=C(Nc1ccc(NC(=S)Nc2ccc(Br)c(C(F)(F)F)c2)cc1)c1csnn1 [Example 548] | 0.008 µg/mL (≈ 0.0159 µM) | >10 µg/mL | >lo | –
37 | O=C(Nc1ccc(NC(=S)Nc2ccc(OC(F)(F)F)c(Br)c2)cc1)c1csnn1 [Example 550] | 0.013 µg/mL (≈ 0.0251 µM) | >10 µg/mL | >10 µg/mL | –
38 | O=C(Nc1ccc(NC(=S)Nc2ccc(SC(F)(F)F)c(Cl)c2)cc1)c1ccco1 [Example 551] | 0.043 µg/mL (≈ 0.0911 µM) | >10 µg/mL | >10 µg/mL | –
39 | O=C(Nc1ccc(NC(=S)NCCc2cccc(F)c2)cc1)c1csnn1 [Example 554] | 0.01 µg/mL (≈ 0.0249 µM) | >10 µg/mL | 1.5 µg/mL (≈ 3.74 µM) | –
40 | O=C(Nc1ccc(NC(=S)NCCc2ccc(F)cc2)cc1)c1csnn1 [Example 555] | 0.008 µg/mL (≈ 0.0199 µM) | >10 µg/mL | 4 µg/mL (≈ 9.96 µM) | –
41 | CCC(C)Cc1cc(NC(=S)Nc2ccc(NC(=O)c3csnn3)cc2)cc(C(F)(F)F)c1 (stereo not shown) [Example 556] | 0.006 µg/mL (≈ 0.0122 µM) | >10 µg/mL | >7.5 µg/mL | –
